Test results: patent US20230322805A1, “NOVEL PYRIMIDODIAZEPINE DERIVATIVES OR USES THEREOF” (SPARK BIOPHARMA, INC., priority 2020, published 2023)

Columns and labels:
DNAJC3 [1] = target: T1, DNAJC3 (Homo sapiens, UniProt Q13217); test: TS-FITGE thermal stability shift; type: binding; set-up: endogenous in cells; host or cells: HEK293 BiFC-tau cells (TS-FITGE, CETSA); details: 10 μM, 200 nM thapsigargin, 3 hours, HEK293 BiFC-tau cells
T1 sequence (Q13217 32-504): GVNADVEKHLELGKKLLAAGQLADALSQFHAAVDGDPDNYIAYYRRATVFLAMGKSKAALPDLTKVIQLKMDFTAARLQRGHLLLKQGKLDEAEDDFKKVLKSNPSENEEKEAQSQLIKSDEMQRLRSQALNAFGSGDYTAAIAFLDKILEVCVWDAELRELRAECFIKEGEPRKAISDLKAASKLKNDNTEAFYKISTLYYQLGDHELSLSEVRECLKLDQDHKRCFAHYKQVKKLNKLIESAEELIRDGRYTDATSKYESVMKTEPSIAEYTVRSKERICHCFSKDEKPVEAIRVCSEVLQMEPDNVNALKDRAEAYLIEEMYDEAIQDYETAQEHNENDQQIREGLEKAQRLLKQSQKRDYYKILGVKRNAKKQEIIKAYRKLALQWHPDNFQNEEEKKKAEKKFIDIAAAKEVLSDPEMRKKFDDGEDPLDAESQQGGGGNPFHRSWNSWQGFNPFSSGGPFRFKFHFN
Procedure: HEK293 BiFC-tau cells were treated with dimethylsulfoxide (DMSO, 0.1%) and a compound according to the present invention (10 μM) in the presence of thapsigargin (200 nM) for 3 hours. The cell suspension was heated at the indicated temperature range for 3 minutes and then at 25° C. for 3 minutes. The heated cells were washed with PBS and resuspended in lysis buffer A (0.4% NP-40 in PBS supplemented with protease inhibitor cocktail). For cell lysis, cell suspensions were freeze-thawed in liquid nitrogen three times. The cell lysate was washed by centrifugation at 20000 g, 4° C. for 20 minutes. Protein concentration of the soluble fraction was quantified by Pierce BCA protein assay. After precipitating 50 μg of protein with cold acetone, it was centrifuged at […] and 4° C. for 7 minutes. The residual pellet was resuspended in 10 μl of conjugation buffer (30 mM Tris-HCl at pH 8.6, 30 mM thiourea, 7 M urea and 4% w/v CHAPS). 1 μl of 0.4 mM Cy2-N-hydroxysuccinimide(Cy2-NHS) (for DMSO-treated group), Cy3-NHS (for SB1607-treated group) or Cy5-NHS (for SB1617-treated group) was mixed with the protein and incubated at 4° C. for 45 minutes. […] Protein spot locations and fluorescence signals were analyzed with DeCyder 2D software ver. […]

DNAJC3 [2] = target: T1, DNAJC3; test: CETSA and pull-down assay with probe SB1624; type: binding; set-up: endogenous in cells; host or cells: HEK293 BiFC-tau cells (TS-FITGE, CETSA); SH-SY5Y cells (pull-down with probe SB1624); details: CETSA 10 μM in HEK293 BiFC-tau cells; pull-down 5 μM SB1624 with or without 40 μM SB1617 in SH-SY5Y cells
Procedure: HEK293 BiFC-tau cells were treated with DMSO (0.1%) and a compound according to the present invention (10 μM) in the presence of thapsigargin (200 nM) for 3 hours. The cell suspension was heated at the indicated temperature range for 3 minutes and then at 25° C. for 3 minutes. The heated cells were washed with PBS and resuspended in Lysis Buffer A. For cell lysis, cell suspensions were freeze-thawed in liquid nitrogen three times. The cell lysate was washed by centrifugation at 20000 g, 4° C. for 20 minutes. Equal volumes of washed cell lysate were combined with SDS buffer and subjected to immunoblotting.
SH-SY5Y cells were seeded in 6-well plates and then treated with 1 μM thapsigargin and 5 μM SB1624 (probe compound) for 2.5 hours with or without 40 μM SB1617. Cells were exposed to 356 nm UV irradiation for 30 min on ice. After washing with cold PBS, cells were lysed in RIPA buffer and removed by centrifugation at […] for 15 minutes at 4° C. The protein concentration of the supernatant was determined by Pierce BCA Protein Assay Kit and the protein concentration was adjusted to 1 mg/mL. […] Proteins were eluted by boiling with 3×SDS sample buffer and analyzed by SDS-PAGE and Western blot. […]

Question: `CN(Cc1ccc(Cl)cc1)c1ncnc2c1[C@@H]1OC[C@H](CN2)N1S(=O)(=O)c1ccc([N+](=O)[O-])cc1` [Compound 117] was tested. Which “thermal stability of protein (TS-FITGE)” value (DNAJC3 [1]) did it give?
Answer: Its value is “thermal stability of the protein was improved”.

Question: What about the “specific binding (CETSA, pull-down)” value (DNAJC3 [2]) of the same compound?
Answer: Its value is “specifically binds”.
